This is an account of results in patent US6900195B2, “Manzamines for treatment of drug resistant infection” (The University of Mississippi, priority 2000, dated 2005).

One may read the EC50 as the concentration at which the effect is half-maximal. Read a high EC50 as weaker potency. A word on the IC50: it is the concentration needed to halve the response being measured. The term % Inhibition denotes the change of the read-out against control, counted positive when it falls. A lower % Inhibition goes with little suppression. One may read the ED50 as the dose at which the effect has come halfway, by size or by number of responders.

≈ marks a conversion by molar mass, not a printed value. Read-outs that look alike come from different tables or passages of the source.

For one series, the system named is M. tuberculosis (H37Rv). Description: microbe, parasite or virus in culture. The series is classed as cell-based, Mycobacterium tuberculosis.
In the next series the test system is HIV-1 in human PBM cells. Description: Anti-HIV activity in human PBM cells. The settings on record: human PBM cells. The series is classed as cell-based.
For the next series, the system named is human PBM cells. Kind of series: Cytotoxicity in human PBM cells. The settings on record: read-out: Cytotoxicity in human PBM cells IC50.
Series [1] can be described thus: Cytotoxicity against human lung and colon carcinoma cells. The series is classed as cell-based.
Series [2] deals with P-388 mouse lymphoma cells. Kind of series: Cytotoxicity against P-388 mouse lymphoma cells. The series is classed as cell-based.
Another series relates to P. berghei. Kind of series: In vivo antimalarial activity in P. berghei-infected mice. More on the design: species or system Plasmodium berghei. The settings on record: for reduction of parasitemia: single i.p. 100 μmoles/kg, comparison 2 days after treatment. The protocol: In Vivo Evaluation of Antimalarial Activity. (National University of Singapore by Dr. Kenny Ang, confirmation of activity at the WHO). Four-week-old, male Swiss albino mice are injected intraperitoneally with 10^7 P. berghei-infected mouse erythrocytes. On day 2 after infection, mice are treated with a single intraperitoneal injection of either the test compound or a reference drug (chloroquine or artemisinin) within a concentration range of 50 to 1,000 μmol/kg of body weight. All test compounds and reference drugs were injected as a suspension in 5% Tween 60 saline. For oral administration, the test compounds are given as a suspension in corn oil, and mice are given two consecutive doses of test compound at 100 μmol/kg on days 2 and 3 after infection. […] Control mice receive only 5% Tween 60 saline or corn oil. Survival of mice was recorded daily. Percent parasitemia is determined microscopically (magnification, ×1,000) from mouse-tail blood smears that were fixed with methanol and stained with Giemsa stain. Blood samples from individual P. berghei-infected mice were collected at various times after a single intraperitoneal treatment of 100 μmol/kg of manzamine A per kg on day 3 after infection. For transmission electron microscopy, approximately 0.5-ml blood samples are fixed with 3% glutaraldehyde in 0.1 M cacodylate buffer (pH 7.4), postfixed with 1% osmium tetroxide and 1% uranyl acetate, dehydrated in a graded ethanol series, and embedded in Spurr's resin. The resulting blocks are cut by using a Reichert-Jung Ultracut with a glass knife. Ultra thin sections were mounted on 150-mesh copper grids, stained with 1% uranyl acetate and 1% lead citrate, and examined with a JEM-100CX electron microscope. Manzamine in plasma was detected by liquid chromatography=selected reaction monitoring-mass spectrometry (LC-SRM-MS). P. berghei-infected mice will be treated with the alkaloid (100 μmol/kg intraperitoneally) on day 3 post infection. Blood samples are collected from individual mice at specific times up to 48 h posttreatment. Plasma was isolated by centrifugation and extracted with 95% acetonitrile containing 5 mM ammonium acetate. The plasma extract was filtered, and 5 μl samples are injected into a Shimadzu LC-10 AD microbore high-pressure liquid chromatograph interfaced with a Perkin-Elmer API 300 turbo-ion-spray tandem mass spectrometer. Samples are separated on a Prodigy C-18 column (30 by 1 mm, 5-μm inner diameter) by elution at 50 μl/min with 86% acetonitrile containing 5 mM ammonium acetate. Manzamine can be detected by monitoring the transition of the protonated manzamine precursor ion from the (M+H)^+ to the (M+H —H2O)^+. Peak areas for the product ion chromatograms are integrated, and concentrations are determined from a linear calibration curve for manzamine in spiked plasma. The limit of detection for the manzamines in plasma by LC-SRM-MS is 2.5 pg. Results are subjected to a nonparametric statistical assessment with a confidence interval of 99% (p<0.01) by using Analyse-it software linked to Microsoft Excel. The program uses the Mann-Whitney U test to determine significant differences between two groups of data.

Series [3] has as its system P. falciparum D6 clone (Sierra Leone, chloroquine-sensitive). Kind of series: In vitro antimalarial activity, parasite LDH assay, D6 clone. The series is classed as cell-based, Plasmodium falciparum. Conditions: for IC50: Plasmodium falciparum.
In series [4] the test system is P. falciparum W2 clone (Indochina, chloroquine-resistant). Kind of series: In vitro antimalarial activity, parasite LDH assay, W2 clone. The series is classed as cell-based, Plasmodium falciparum. Conditions: P. falciparum W2 clone; for IC50: Plasmodium falciparum, read-out: W2 Clone IC50.
In series [5] the test system is Vero cells. Conditions: African green monkey, 48 h.
Series [6] can be described thus: Cytotoxicity of microbial metabolites versus parent compounds (cells not stated). The series is classed as cell-based.
The subject of the next series is P. berghei N strain. Description: Oral antimalarial activity against P. berghei N strain. The settings on record: orally in DMSO, preliminary results. The series is classed as in vivo, Plasmodium berghei.
In series [7] the test system is Vero cells. Kind of series: In vitro cytotoxicity to mammalian cells (neutral red).
The test system of series [8] is human lung and colon carcinoma cells. Conditions: cited from earlier work.
Series [9] relates to P-388 mouse lymphoma cells. The settings on record: cited from earlier work.
Setting [10] is: M. tuberculosis H37Rv, test concentration not given.
Setting [11] is: Mycobacterium tuberculosis, M. tuberculosis H37Rv, read-out: MIC.
Setting [12] is: P. berghei-infected mice, single i.p. dose 100 μmoles/kg.

Turning to `O=C1CCCN2[C@@H](CC1)C[C@]13CN4CCCC/C=C\CC[C@](O)(C=C(c5nccc6c5[nH]c5c(O)cccc56)C1CC4)[C@H]23` (stereo partly drawn) [ent-Manzamine F, ent-manzamine F], the MIC with M. tuberculosis (H37Rv) (M. tuberculosis H37Rv) was above 12.5 µg/mL. The same molecule registered an EC50 with HIV-1 in human PBM cells of 94.8 µM. In the series on human PBM cells, the concentration for half-maximal inhibition (IC50) worked out at 40.8 µM.
For the molecule `O[C@@H]1CCCN2CC[C@@H]1O[C@@]13CC[C@@H](OC[C@]45CN6CCCC/C=C\CC[C@](O)(C=C(c7nccc8c7[nH]c7ccccc78)[C@@H]4CC6)[C@H]25)[C@@H](O)CCN1[C@@H]1[C@]2(CN4CCCC/C=C\CC[C@]1(O)C=C(c1nccc5c1[nH]c1ccccc15)[C@@H]2CC4)C3` [neo-Kauluamine, neo-kauluamine], inhibition in series [1] was half-maximal at 1 µg/mL (≈ 0.859 µM) (IC50). For the same molecule, the “% Inhibition” value in the series on M. tuberculosis (H37Rv) (setting [10]) is 44%. The MIC with M. tuberculosis (H37Rv) (setting [11]) was above 12.5 µg/mL.
In turn, “15,16,32,33-tetrahydro-ent-8-hydroxymanzamine A” showed an MIC with M. tuberculosis (H37Rv) (M. tuberculosis H37Rv) below 6.25 µg/mL. Also, the “% Inhibition” value in the series with M. tuberculosis (H37Rv) (setting [10]) stood at 100%.
In the series on M. tuberculosis (H37Rv) (M. tuberculosis H37Rv), “ent-8-hydroxy-manzamine A [ent-8-Hydroxymanzamine A]” showed an MIC of 3.13 µg/mL. The “% Inhibition” value in the series on M. tuberculosis (H37Rv) (setting [10]) worked out at 99%. In the series with HIV-1 in human PBM cells, this molecule yielded an EC50 of 44.2 µM. Besides, the “cytotoxicity IC50” value in series [2] was 0.25 µg/mL. In addition, the 50% inhibitory concentration (IC50) with human PBM cells amounted to 4.9 µM. Also, the “reduction of parasitemia” value in the series on P. berghei (P. berghei-infected mice) is given as “efficiently reduced parasitemia”. The molecule also registered an average survival days with P. berghei (setting [12]) of 9 to 11 days. Also, the “in vivo activity against P. berghei relative to chloroquine or artemisinin” value in the series on P. berghei (mice) is given as “in vivo activity against P. berghei greater than chloroquine or artemisinin”.
In the series with M. tuberculosis (H37Rv) (M. tuberculosis H37Rv), `O[C@]12C=C(c3nccc4c3[nH]c3ccccc34)C3CCN(CCCC/C=C\CC1)C[C@@]31C[C@]34CC[C@H](CCCN3[C@H]12)O4` (stereo partly shown) [6-Deoxymanzamine X, 6-deoxymanzamine X] showed an MIC below 12.5 µg/mL. The “% Inhibition” value in the series on M. tuberculosis (H37Rv) (setting [10]) was determined as 98%.
Consider `C[C@@H]1CC[C@H]2[C@@H](C)C(=O)O[C@@H]3O[C@@]4(C)CC[C@@H]1[C@]32OO4` [Artemisinin, artemisinin, reference compound], for which the IC50 in series [3] (P. falciparum D6 clone, read-out: D6 Clone IC50) was found to be 0.01 µg/mL (≈ 0.0354 µM); in series [4], 0.0063 µg/mL (≈ 0.0223 µM). The average survival days with P. berghei (setting [12]) was 2 to 3 days. In the series on Vero cells [5], the “Cytotoxicity TC50” value is >5,000 ng/mL.
With `O=CC1=C[C@@]2(O)CC/C=C\CCCCN3CC[C@@H]1[C@]1(CC4/C=C\CCCCN4[C@H]12)C3` (stereo partly shown) [Ircinal A], in the series on M. tuberculosis (H37Rv) (M. tuberculosis H37Rv), the MIC is below 12.5 µg/mL. For the same molecule, in the series with M. tuberculosis (H37Rv) (setting [10]), the “% Inhibition” value was 98%. For the same molecule, the EC50 in the series with HIV-1 in human PBM cells came to 45.2 µM. Also, the “cytotoxicity relative to the parent compounds” value in [6] is “less cytotoxic than the parent compounds”. The 50% inhibitory concentration (IC50) with human PBM cells stood at 34.2 µM. Moreover, in the series on P. berghei (mice), the “activity in vivo against malaria” value is “failed to show any activity in vivo against malaria”.
In turn, 8-hydroxymanzamine returned an ED50 in the series on P. berghei N strain below 10 mg/kg.
In the case of `CCN(CC)CCCC(C)Nc1ccnc2cc(Cl)ccc12` (stereo not shown) [Chloroquine, chloroquine, reference compound], the concentration for half-maximal inhibition (IC50) in [3] (D6, read-out: D6 Clone IC50) came out at 0.0155 µg/mL (≈ 0.0485 µM); in series [4], 0.17 µg/mL (≈ 0.531 µM). For the same molecule, in the series with Vero cells [7], the “Cytotoxicity TC50” value is >5,000 ng/mL. Besides, the “reduction of parasitemia” value with P. berghei (P. berghei-infected mice) is “comparable reduction of parasitemia”. Moreover, the average survival days in the series with P. berghei (in vivo, ip) came to 6 days.
Consider `O=C1CCCN2[C@H]3[C@]45CN6CCCC/C=C\CC[C@]3(C=C(c3nccc7c3[nH]c3c(O)cccc37)[C@H]4CC6)O[C@@]2(CC1)C5` [8-HOMA Metabolite 1], for which the “% Inhibition” value in the series on M. tuberculosis (H37Rv) (setting [10]) stood at 98%. Also, in the series with M. tuberculosis (H37Rv) (setting [11]), the MIC is below 12.5 µg/mL. In addition, the “cytotoxicity relative to the parent compounds” value in series [6] is on record as “less cytotoxic than the parent compounds”.
As for kauluamine, the “cytotoxicity” value in series [8] is “inactive”.
On to `CO[C@H]1/C=C/O[C@@]2(C)Oc3c(C)c(O)c4c(O)c(c(/C=N/N5CCN(C)CC5)c(O)c4c3C2=O)NC(=O)/C(C)=C\C=C\[C@H](C)[C@H](O)[C@@H](C)[C@@H](O)[C@@H](C)[C@H](OC(C)=O)[C@@H]1C` [Rifampin, reference compound], for which the “% Inhibition” value in the series on M. tuberculosis (H37Rv) is recorded as 100%. Further, the MIC in the series on M. tuberculosis (H37Rv) (Mycobacterium tuberculosis, H37RV) worked out at 0.25 µg/mL (≈ 0.304 µM).
(+)-8-Hydroxymanzamine A: the MIC against M. tuberculosis (H37Rv) (M. tuberculosis H37Rv) was below 6.25 µg/mL. Further, the “% Inhibition” value in the series with M. tuberculosis (H37Rv) (setting [10]) is 100%. Besides, the “D6 Clone IC50” value in [3] (P. falciparum D6 clone) was 0.006 µg/mL. Also, the “Cytotoxicity TC50” value in the series with Vero cells [7] stood at 320 ng/mL. Further, the “W2 Clone IC50” value in series [4] is 0.008 µg/mL. Also, the “cytotoxicity, reported” value in series [9] was “inactive”.
On to `O[C@]12C=C(c3nccc4c3[nH]c3ccccc34)[C@@H]3CCN(CCCC/C=C\CC1)C[C@@]31CC/C=C\CCCCN[C@@H]12` [Manzamine J], for which, in the series with M. tuberculosis (H37Rv) (setting [10]), the “% Inhibition” value turned out to be 99%. Further, the MIC with M. tuberculosis (H37Rv) (setting [11]) was below 12.5 µg/mL.
Molecule “8,12-di-O-acetyl ent-8-hydroxymanzamine A [ent-8-Hydroxymanzamine A diAc]” returned an MIC against M. tuberculosis (H37Rv) (M. tuberculosis H37Rv) below 6.25 µg/mL. In the series with M. tuberculosis (H37Rv) (setting [10]), the “% Inhibition” value is 95%.
In the same order, the values of Manzamine L are below 12.5 µg/mL and 99%.
The molecule `O=C1CCCN2[C@@H](CC1)C[C@]13CN4CCCC/C=C\CC[C@](O)(C=C(c5nccc6c5[nH]c5ccccc56)[C@@H]1CC4)[C@H]23` [Manzamine E] displayed an MIC against M. tuberculosis (H37Rv) (M. tuberculosis H37Rv) of 3.13 µg/mL (≈ 5.54 µM). For the same molecule, in the series with M. tuberculosis (H37Rv) (setting [10]), the “% Inhibition” value turned out to be 99%. In the series on HIV-1 in human PBM cells, this molecule had a 50% effective concentration (EC50) of 18.7 µM. In addition, in the series on human PBM cells, the IC50 was found to be 35.5 µM.
(−)-12, 34-Oxamanzamine F gave an EC50 with HIV-1 in human PBM cells of 20.4 µM. For the same molecule, in the series with human PBM cells, the IC50 was found to be 75.2 µM.
